# Results: PubChem BioAssay AID1918957 (Molecular Pharmacology Branch, DTP, NCI, 2023)
# “And” between values parts separate entries of the source, which are not always exact repeats. Equal entries are not always repeated.
# System: NCI-H1876 complex spheroid viability
# Experiment: Anticancer human tumor NCI-H1876 cell line growth inhibition [LSD1];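 further: spheroids exposed to compounds for one week before readout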;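 on viability, T/C: 100% = DMSO vehicle-treated spheroids so lower means fewer viable cells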
# Settings: for viability, T/C: stronger effect = lower value
# Method in brief: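 Drug combinations with the LSD1 inhibitor iadademstat tested on tumor cells co-cultured as spheroids with endothelial cells and mesenchymal stem cells. Concentrations descended in half-log increments from clinical Cmax or 10 microM.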
# [1] = curve of first compound, second compound 0.1 µM
# [2] = curve of first compound, second compound 0.316 µM
# [3] = curve of first compound, second compound 1 µM
# [4] = curve of first compound, second compound 3.16 µM
# [5] = curve of first compound, second compound 10 µM
smiles,measurement,setting,value
CC1COCCN1c1cc(-c2ccnn2C)c2ccnc(-c3ccn[nH]3)c2n1 (configuration not stated),"viability, T/C",compound 0.00316 µM,64.3% and 45%
same,"viability, T/C",compound 0.01 µM,59.2% and 33.4%
same,"viability, T/C",compound 0.0316 µM,32.8% and 13.7%
same,"viability, T/C",compound 0.1 µM,19.8% and 4.72%
same,"viability, T/C",compound 0.316 µM,10% and 3.12%
same,"viability, T/C",compound 1 µM,12.8% and 4.1%
same,IC50,curve of compound,0.0146 µM and < 0.00316 µM
NS(=O)(=O)OCC1CC(n2ccc3c(NC4CCc5ccccc54)ncnc32)CC1O (configuration not stated) + NC1CC1c1ccc(-c2cccc(O)c2)cc1,IC50,[1],0.0846 µM
same,IC50,[2],0.0943 µM
same,IC50,[3],0.0782 µM
same,IC50,[4],0.13 µM
same,IC50,[5],0.187 µM
same,"viability, T/C","second compound 0.1 µM, first compound 0.00949 µM",93.3%
same,"viability, T/C","second compound 0.1 µM, first compound 0.03 µM",58%
same,"viability, T/C","second compound 0.1 µM, first compound 0.0949 µM",52%
same,"viability, T/C","second compound 0.1 µM, first compound 0.3 µM",45.5%
same,"viability, T/C","second compound 0.1 µM, first compound 0.949 µM",44.5%
same,"viability, T/C","second compound 0.1 µM, first compound 3 µM",37.4%
same,"viability, T/C","second compound 0.316 µM, first compound 0.00949 µM",82.4%
same,"viability, T/C","second compound 0.316 µM, first compound 0.03 µM",59.1%
same,"viability, T/C","second compound 0.316 µM, first compound 0.0949 µM",50.6%
same,"viability, T/C","second compound 0.316 µM, first compound 0.3 µM",45.8%
same,"viability, T/C","second compound 0.316 µM, first compound 0.949 µM",42.8%
same,"viability, T/C","second compound 0.316 µM, first compound 3 µM",38.4%
same,"viability, T/C","second compound 1 µM, first compound 0.00949 µM",86.6%
same,"viability, T/C","second compound 1 µM, first compound 0.03 µM",56.8%
same,"viability, T/C","second compound 1 µM, first compound 0.0949 µM",49.4%
same,"viability, T/C","second compound 1 µM, first compound 0.3 µM",47.2%
same,"viability, T/C","second compound 1 µM, first compound 0.949 µM",41.3%
same,"viability, T/C","second compound 1 µM, first compound 3 µM",38.3%
same,"viability, T/C","second compound 3.16 µM, first compound 0.00949 µM",91.1%
same,"viability, T/C","second compound 3.16 µM, first compound 0.03 µM",63%
same,"viability, T/C","second compound 3.16 µM, first compound 0.0949 µM",53.6%
same,"viability, T/C","second compound 3.16 µM, first compound 0.3 µM",46.7%
same,"viability, T/C","second compound 3.16 µM, first compound 0.949 µM",39.9%
same,"viability, T/C","second compound 3.16 µM, first compound 3 µM",36.2%
same,"viability, T/C","second compound 10 µM, first compound 0.00949 µM",87.2%
same,"viability, T/C","second compound 10 µM, first compound 0.03 µM",73.6%
same,"viability, T/C","second compound 10 µM, first compound 0.0949 µM",55.5%
same,"viability, T/C","second compound 10 µM, first compound 0.3 µM",45%
same,"viability, T/C","second compound 10 µM, first compound 0.949 µM",38.6%
same,"viability, T/C","second compound 10 µM, first compound 3 µM",30.9%
CC(C)CC(NC(=O)CNC(=O)c1cc(Cl)ccc1Cl)B1OC(=O)CC(CC(=O)O)(C(=O)O)O1 (configuration not stated) + NC1CC1c1ccc(-c2cccc(O)c2)cc1,IC50,[1],0.0077 µM
same,IC50,[2],0.00744 µM
same,IC50,[3],0.00744 µM
same,IC50,[4],0.00735 µM
same,IC50,[5],0.00663 µM
same,"viability, T/C","second compound 0.1 µM, first compound 0.000316 µM",98.9%
same,"viability, T/C","second compound 0.1 µM, first compound 0.001 µM",103%
same,"viability, T/C","second compound 0.1 µM, first compound 0.00316 µM",105%
same,"viability, T/C","second compound 0.1 µM, first compound 0.01 µM",34.6%
same,"viability, T/C","second compound 0.1 µM, first compound 0.0316 µM",1.61%
same,"viability, T/C","second compound 0.1 µM, first compound 0.1 µM",0.3%
same,"viability, T/C","second compound 0.316 µM, first compound 0.000316 µM",108%
same,"viability, T/C","second compound 0.316 µM, first compound 0.001 µM",101%
same,"viability, T/C","second compound 0.316 µM, first compound 0.00316 µM",97.3%
same,"viability, T/C","second compound 0.316 µM, first compound 0.01 µM",33.7%
same,"viability, T/C","second compound 0.316 µM, first compound 0.0316 µM",1.47%
same,"viability, T/C","second compound 0.316 µM, first compound 0.1 µM",0.31%
same,"viability, T/C","second compound 1 µM, first compound 0.000316 µM",105%
same,"viability, T/C","second compound 1 µM, first compound 0.001 µM",103%
same,"viability, T/C","second compound 1 µM, first compound 0.00316 µM",102%
same,"viability, T/C","second compound 1 µM, first compound 0.01 µM",32.1%
same,"viability, T/C","second compound 1 µM, first compound 0.0316 µM",1.86%
same,"viability, T/C","second compound 1 µM, first compound 0.1 µM",0.31%
same,"viability, T/C","second compound 3.16 µM, first compound 0.000316 µM",110%
same,"viability, T/C","second compound 3.16 µM, first compound 0.001 µM",106%
same,"viability, T/C","second compound 3.16 µM, first compound 0.00316 µM",98.4%
same,"viability, T/C","second compound 3.16 µM, first compound 0.01 µM",32.5%
same,"viability, T/C","second compound 3.16 µM, first compound 0.0316 µM",1.08%
same,"viability, T/C","second compound 3.16 µM, first compound 0.1 µM",0.3%
same,"viability, T/C","second compound 10 µM, first compound 0.000316 µM",103%
same,"viability, T/C","second compound 10 µM, first compound 0.001 µM",102%
same,"viability, T/C","second compound 10 µM, first compound 0.00316 µM",87%
same,"viability, T/C","second compound 10 µM, first compound 0.01 µM",29.6%
same,"viability, T/C","second compound 10 µM, first compound 0.0316 µM",0.75%
same,"viability, T/C","second compound 10 µM, first compound 0.1 µM",0.39%
